Assay results published in patent publication US10815196B2, “(S)-CSA salt of S-ketamine, (R)-CSA salt of S-ketamine and processes for the preparation of S-ketamine” (Janssen Pharmaceutica NV, priority 2015, dated 2020).

Columns and labels:
Format in all cases: physicochemical
[1] = Storage of amorphous anhydrous form at ambient conditions
Experimental: . The amorphous anhydrous form of (S)-CSA salt of S-ketamine was also obtained (in a mixture with the monohdrate form) by slurrying the crystalline monohydrate form of (S)-CSA salt of S-ketamine in 2-methyl THF or isopropyl acetate at about 80° C. for about 4 days.

[2] = Approximate solubility by stepwise dilution of a suspension; settings: thermodynamic from solid
Experimental: The approximate solubility of the monohydrate crystalline form of the (S)-CSA salt of S-ketamine was measured by stepwise dilution of a suspension of about 10 mg of the sample in 0.05 mL solvent. Table 4 below lists the approximate solubility, denoted “S”. If a sample was not dissolved by addition of a total of 10-12 mL of solvent, the solubility is indicated as <1 mg/mL in the Table 4, below.

[3] = Solubility in select solvents after 24 hours, filtrate analyzed by HPLC
Experimental: Additionally, the solubility of the monohydrate crystalline form of the (S)-CSA salt of S-ketamine in select solvents was determined as follows: 21 g of (S)-CSA salt of S- ketamine was dissolved in 100 mL of solvent (as listed in Table 5 below). After 24 hours, the solutions were analyzed visually. If the compound was completely dissolved, solubility was above 20 g/100 mL. If the compound was not completely dissolved, any remaining precipitate was filtered off, the filtrate was diluted 400-fold with HPLC dilution solvent (or acetonitrile/HPLC dilution solvent) and analyzed by HPLC, with results as listed in Table 5, below.

[4] = Dynamic Vapor Sorption (DVS) measurement
Experimental: Dynamic Vapor Sorption (DVS) measurements (where completed) were measured using a Projekt Messtechnik Sorptions Prufsystem SPS 11 or Surface Measurement Systems DVS-1 scanning (cycling relative humidity and hodling the sample at a set relative humidity) as follow: (a) holding sample at 50% RH for 2 hours; (b) 50% RH to 0% RH (5%/h); holding at 0% RH for 5 hours; (c) 0% RH to 95% RH (5%/h); holding at 95% RH for 5 hours; and (d) 95% RH to 50% RH (5%/h); holding at 50% RH for 2 hours.

TG-FTIR measurement = settings: 25° C. to 300° C., 10K/min, nitrogen
Experimental: ThermoGravimetric-Fourier Transform InfraRed (TG-FTIR) measurements, where carried out were measures using a Netzsche Thermo-Microbalance TG209 with Bruker FT-IR Spectrometer Vector 22, with aluminum crucible with microhoel, nitrogen atmosphere and scanning form 25° C. to 300° C. at a heating rate of 10K/min.

## CC1(C)[C@@H]2CC[C@@]1(CS(=O)(=O)O)C(=O)C2.CN[C@]1(c2ccccc2Cl)CCCCC1=O
[1]; amorphous, anhydrous form
  Hygroscopicity: hygroscopic
[1]; storage at ambient conditions
  Form stability on storage: rapidly converts to the monohydrate form

## CN[C@]1(c2ccccc2Cl)CCCCC1=O [(S)-2-(2-chlorophenyl)-2-(methylammonium)cyclohexanone(+)-camphorsulfonate monohydrate]
[2]; 10:1 acetone:water, organic solvent or mixture, solvent: 10:1 aectobne:water
  solubility: 20 to 24 mg/mL
[2]; aqueous with cosolvent or surfactant or cyclodextrin, solvent: 1:1 2-propanol:water
  solubility: 93 to 189 mg/mL
[2]; aqueous with cosolvent or surfactant or cyclodextrin, solvent: 1:1 acetone:water
  solubility: 58 to 77 mg/mL
[2]; organic solvent or mixture, solvent: 1,4-dioxane
  solubility: 5 to 6 mg/mL
[2]; organic solvent or mixture, solvent: 1:1 2-propanol:isopropyl acetate
  solubility: 10 to 11 mg/mL
[2]; organic solvent or mixture, solvent: 2-methyl THF saturated with water
  solubility: 6 to 8 mg/mL
[2]; organic solvent or mixture, solvent: 2-methyl-THF
  solubility: 5 to 7 mg/mL
[2]; organic solvent or mixture, solvent: 2-propanol
  solubility: 22 to 25 mg/mL
[2]; organic solvent or mixture, solvent: 10:1 2-propanol:water
  solubility: 24 to 28 mg/mL
[2]; organic solvent or mixture, solvent: DCM
  solubility: 67 to 101 mg/mL
[2]; organic solvent or mixture, solvent: DMF
  solubility: 91 to 185 mg/mL
[2]; organic solvent or mixture, solvent: DMSO
  solubility: 106 to 212 mg/mL
[2]; organic solvent or mixture, solvent: TBME
  solubility: < 1 mg/mL
[2]; organic solvent or mixture, solvent: THF
  solubility: 5 to 7 mg/mL
[2]; organic solvent or mixture, solvent: acetone
  solubility: 5 to 6 mg/mL
[2]; organic solvent or mixture, solvent: acetonitrile
  solubility: 22 to 24 mg/mL
[2]; organic solvent or mixture, solvent: anisole
  solubility: < 1 mg/mL
[2]; organic solvent or mixture, solvent: ethanol
  solubility: 67 to 100 mg/mL
[2]; organic solvent or mixture, solvent: ethyl acetate
  solubility: < 1 mg/mL
[2]; organic solvent or mixture, solvent: heptane
  solubility: < 1 mg/mL
[2]; organic solvent or mixture, solvent: isopropyl acetate
  solubility: < 1 mg/mL
[2]; organic solvent or mixture, solvent: methanol
  solubility: > 226 mg/mL
[2]; organic solvent or mixture, solvent: toluene
  solubility: < 1 mg/mL
[2]; solvent: water
  solubility: 20 to 24 mg/mL
[3]; solvent: 2-propanol
  Solubility at 23.6° C.: 7.275 g/100 mL
[3]; solvent: N,N-dimethylacetamide
  Solubility at 23.6° C.: 18.200 g/100 mL
[3]; solvent: N,N-dimethylformamide
  Solubility at 23.6° C.: 18.267 g/100 mL
[3]; solvent: acetic acid
  Solubility at 23.6° C.: 18.209 g/100 mL
[3]; solvent: acetone (2-propanone)
  Solubility at 23.6° C.: 0.578 g/100 mL
[3]; solvent: dichloromethane/methanol (50/50 v/v)
  Solubility at 23.6° C.: 18.589 g/100 mL
[3]; solvent: ethanol
  Solubility at 23.6° C.: 18.297 g/100 mL
[3]; solvent: methanol
  Solubility at 23.6° C.: 18.457 g/100 mL
[3]; thermodynamic from solid, solvent: demineralized water, 23.6° C.
  solubility thermodynamic at 24 h: 53.4 mg/mL
[4]; cycling 0% RH to 95% RH
  Hygroscopicity: no hygroscopicity
[4]; elevated relative humidity
  Physical stability at elevated relative humidity: physical stability
TG-FTIR measurement
  Chemical decomposition temperature: above 230 °C
